Experimental data from the NIST ThermoML archive (doi:10.1016/j.jct.2008.02.001).
Numbers after ± are expanded uncertainties.

Assay: molar heat capacity at constant pressure
Details: 101.33 kPa, Crystal, PPMS-Quantum Design

[O-][Si]([O-])([O-])[O-].[Th+4] [thorium silicate]
Details	molar heat capacity at constant pressure [J/K/mol]
1.885 K	0.001439 ± 0.00011
1.946 K	0.001553 ± 0.00012
2.013 K	0.001656 ± 0.00012
2.084 K	0.0018 ± 0.00014
2.158 K	0.001932 ± 0.00015
2.234 K	0.002074 ± 0.00015
2.319 K	0.002253 ± 0.00016
2.399 K	0.002416 ± 0.00018
2.484 K	0.002584 ± 0.00019
2.572 K	0.002792 ± 0.0002
2.66 K	0.003006 ± 0.00022
2.749 K	0.003244 ± 0.00023
2.842 K	0.0035 ± 0.00025
2.936 K	0.003794 ± 0.00027
3.038 K	0.004121 ± 0.00029
3.136 K	0.004482 ± 0.00032
3.243 K	0.004896 ± 0.00035
3.353 K	0.005336 ± 0.00038
3.463 K	0.005793 ± 0.00041
3.573 K	0.006259 ± 0.00045
3.69 K	0.00688 ± 0.00049
3.812 K	0.00739 ± 0.00052
3.935 K	0.007954 ± 0.00056
4.063 K	0.008647 ± 0.00061
4.198 K	0.009528 ± 0.00067
4.338 K	0.01046 ± 0.00074
4.483 K	0.01148 ± 0.00081
4.637 K	0.0127 ± 0.0009
4.798 K	0.01391 ± 0.00098
4.968 K	0.01533 ± 0.0011
5 K	0.01646 ± 0.0013
5.151 K	0.01714 ± 0.0012
5.343 K	0.01921 ± 0.0014
5.54 K	0.02152 ± 0.0015
5.744 K	0.02438 ± 0.0017
5.956 K	0.02725 ± 0.0019
6.175 K	0.03065 ± 0.0022
6.401 K	0.03406 ± 0.0024
6.631 K	0.03824 ± 0.0027
6.869 K	0.04281 ± 0.003
7.113 K	0.04768 ± 0.0034
7.362 K	0.05303 ± 0.0037
7.62 K	0.05923 ± 0.0042
7.885 K	0.06632 ± 0.0046
8.158 K	0.07389 ± 0.0052
8.441 K	0.08256 ± 0.0058
8.734 K	0.09321 ± 0.0066
9.036 K	0.1048 ± 0.0073
9.352 K	0.1182 ± 0.0083
9.685 K	0.1338 ± 0.0094
10 K	0.1498 ± 0.011
10.02 K	0.1509 ± 0.011
10.37 K	0.1707 ± 0.012
10.73 K	0.1934 ± 0.014
11.1 K	0.2188 ± 0.015
11.48 K	0.2483 ± 0.017
11.88 K	0.2819 ± 0.02
12.29 K	0.32 ± 0.022
12.72 K	0.3633 ± 0.025
13.16 K	0.4129 ± 0.029
13.61 K	0.4682 ± 0.033
14.09 K	0.5314 ± 0.037
14.58 K	0.603 ± 0.042
15.08 K	0.6838 ± 0.048
15.61 K	0.7739 ± 0.054
16.14 K	0.8747 ± 0.061
16.71 K	0.9903 ± 0.069
17.29 K	1.117 ± 0.078
17.89 K	1.255 ± 0.087
18.52 K	1.411 ± 0.098
19.15 K	1.576 ± 0.11
19.81 K	1.761 ± 0.12
20 K	1.81 ± 0.12
20.51 K	1.965 ± 0.14
21.22 K	2.185 ± 0.15
21.97 K	2.428 ± 0.17
22.7 K	2.683 ± 0.19
23.5 K	2.973 ± 0.21
24.27 K	3.257 ± 0.23
25.16 K	3.599 ± 0.25
25.98 K	3.941 ± 0.27
26.91 K	4.308 ± 0.3
27.88 K	4.727 ± 0.33
28.82 K	5.152 ± 0.36
29.81 K	5.6 ± 0.39
30 K	5.69 ± 0.4
30.85 K	6.085 ± 0.42
31.93 K	6.6 ± 0.46
33.08 K	7.146 ± 0.5
34.36 K	7.779 ± 0.54
35.54 K	8.309 ± 0.58
36.76 K	8.996 ± 0.62
38.05 K	9.736 ± 0.68
39.38 K	10.24 ± 0.72
40 K	10.68 ± 0.75
40.71 K	10.97 ± 0.76
42.03 K	11.71 ± 0.81
43.53 K	12.5 ± 0.87
45.03 K	13.28 ± 0.92
46.58 K	14.12 ± 0.98
48.19 K	15 ± 1.1
49.84 K	15.88 ± 1.1
50 K	16.04 ± 1.1
51.54 K	16.84 ± 1.2
53.32 K	17.83 ± 1.2
55.17 K	18.86 ± 1.3
57.08 K	19.9 ± 1.4
59.06 K	20.99 ± 1.5
61.1 K	22.12 ± 1.5
63.21 K	23.21 ± 1.6
65.39 K	24.39 ± 1.7
67.65 K	25.63 ± 1.8
69.99 K	26.91 ± 1.9
72.42 K	28.19 ± 2
74.93 K	29.51 ± 2
77.52 K	30.84 ± 2.1
80.21 K	32.24 ± 2.2
82.99 K	33.67 ± 2.3
85.77 K	35.08 ± 2.4
88.74 K	36.63 ± 2.5
91.81 K	38.21 ± 2.7
94.98 K	39.83 ± 2.8
98.28 K	41.48 ± 2.9
100 K	42.28 ± 2.9
101.68 K	43.16 ± 3
105.2 K	44.86 ± 3.1
108.84 K	46.57 ± 3.2
112.61 K	48.32 ± 3.4
116.51 K	50.09 ± 3.5
120.55 K	51.87 ± 3.6
124.73 K	53.61 ± 3.7
129.04 K	55.37 ± 3.9
133.51 K	57.22 ± 4
138.13 K	59.1 ± 4.1
142.91 K	60.93 ± 4.2
147.86 K	62.82 ± 4.4
150 K	63.64 ± 4.4
152.97 K	64.6 ± 4.5
158.25 K	66.54 ± 4.6
163.72 K	68.4 ± 4.8
169.39 K	70.23 ± 4.9
175.25 K	72.2 ± 5
181.32 K	74.15 ± 5.2
187.59 K	75.84 ± 5.3
194.08 K	77.96 ± 5.4
200 K	79.46 ± 5.5
200.79 K	79.76 ± 5.5
207.73 K	81.56 ± 5.7
214.93 K	83.34 ± 5.8
222.36 K	85.17 ± 5.9
230.05 K	86.81 ± 6
238.01 K	88.63 ± 6.2
246.25 K	90.44 ± 6.3
250 K	91.07 ± 6.3
254.74 K	92.01 ± 6.4
263.54 K	93.59 ± 6.5
272.64 K	95.02 ± 6.6
282.08 K	96.5 ± 6.7
291.84 K	98.01 ± 6.8
298.15 K	98.68 ± 6.9
300 K	98.88 ± 6.9
302.26 K	99.17 ± 6.9
